Experimental data: ChEMBL document CHEMBL3860096, “Fragment-to-Lead Medicinal Chemistry Publications in 2015” (J Med Chem, 2017)
Blank lines part the entries; values can stand above or below the compound they belong to.

Legend:
Collagenase 3 = Collagenase 3 (Homo sapiens, UniProt P45452); assay: Inhibition of human recombinant MMP13 using thiopeptide as chromogenic substrate by colorimetric assay
[1] = Inhibition of Haemophilus influenzae NAD+-dependent DNA ligase A
[2] = Inhibition of Streptococcus pneumoniae NAD+-dependent DNA ligase A
[3] = molecular target: DNA repair protein RAD51 homolog 1 (Homo sapiens, UniProt Q06609); assay: Binding affinity to of humanised RAD51 C-terminal ATPase domain (with deletion of L2 loop residues 288 to 314) from Pyrococcus furiosus expressed in Escherichia coli by ITC method
[4] = Inhibition of DNA gyrase B (unknown origin)
Coagulation factor XI = Coagulation factor XI (Homo sapiens, UniProt P03951); assay: Inhibition of human factor 11a using pyroGlu-Pro-Arg-pNA.HCl substrate
[5] = molecular target: Proto-oncogene tyrosine-protein kinase receptor Ret (Homo sapiens) (UniProt P07949); assay: Inhibition of human recombinant RET assessed as residual activity at 100 uM by microfluidics separation based assay
Sequence of Proto-oncogene tyrosine-protein kinase receptor Ret (Homo sapiens) (P07949 whole entry): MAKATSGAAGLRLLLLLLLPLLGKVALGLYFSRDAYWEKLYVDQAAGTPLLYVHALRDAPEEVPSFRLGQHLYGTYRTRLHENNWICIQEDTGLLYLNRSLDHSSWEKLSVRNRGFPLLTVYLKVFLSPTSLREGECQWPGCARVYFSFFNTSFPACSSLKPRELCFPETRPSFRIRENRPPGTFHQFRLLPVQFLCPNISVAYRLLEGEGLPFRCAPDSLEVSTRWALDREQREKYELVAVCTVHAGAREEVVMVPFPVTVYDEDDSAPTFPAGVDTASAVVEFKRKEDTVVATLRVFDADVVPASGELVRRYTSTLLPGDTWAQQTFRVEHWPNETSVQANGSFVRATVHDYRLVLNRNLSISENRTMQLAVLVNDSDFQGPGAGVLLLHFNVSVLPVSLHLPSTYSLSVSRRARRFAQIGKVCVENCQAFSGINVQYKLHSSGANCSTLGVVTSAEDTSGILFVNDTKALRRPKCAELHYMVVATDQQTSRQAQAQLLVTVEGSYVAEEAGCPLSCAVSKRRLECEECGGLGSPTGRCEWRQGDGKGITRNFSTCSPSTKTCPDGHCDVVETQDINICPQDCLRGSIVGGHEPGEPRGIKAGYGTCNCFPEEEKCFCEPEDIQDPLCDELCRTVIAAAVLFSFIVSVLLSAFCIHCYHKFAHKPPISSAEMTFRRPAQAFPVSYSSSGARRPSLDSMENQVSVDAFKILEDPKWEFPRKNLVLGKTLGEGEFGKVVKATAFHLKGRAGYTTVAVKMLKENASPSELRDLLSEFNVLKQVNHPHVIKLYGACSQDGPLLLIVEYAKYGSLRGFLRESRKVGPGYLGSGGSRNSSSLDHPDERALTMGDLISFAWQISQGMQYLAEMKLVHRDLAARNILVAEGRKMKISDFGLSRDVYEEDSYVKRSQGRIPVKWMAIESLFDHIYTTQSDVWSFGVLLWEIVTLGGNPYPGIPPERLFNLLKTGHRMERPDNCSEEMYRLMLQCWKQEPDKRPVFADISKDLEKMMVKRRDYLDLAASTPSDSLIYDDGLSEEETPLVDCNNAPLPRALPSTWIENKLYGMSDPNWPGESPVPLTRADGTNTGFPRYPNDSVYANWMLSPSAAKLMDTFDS

Sequence of DNA repair protein RAD51 homolog 1 (Q06609 2-339 limits assumed): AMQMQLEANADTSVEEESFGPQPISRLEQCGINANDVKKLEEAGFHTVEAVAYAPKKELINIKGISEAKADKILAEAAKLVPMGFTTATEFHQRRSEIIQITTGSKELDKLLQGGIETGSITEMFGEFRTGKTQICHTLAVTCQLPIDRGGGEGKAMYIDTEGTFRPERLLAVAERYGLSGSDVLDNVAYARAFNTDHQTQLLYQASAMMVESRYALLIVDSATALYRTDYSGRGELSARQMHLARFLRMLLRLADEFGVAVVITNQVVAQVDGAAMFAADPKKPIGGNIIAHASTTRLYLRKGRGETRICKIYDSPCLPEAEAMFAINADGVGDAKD
Sequence of Coagulation factor XI (P03951 19-387 limits assumed): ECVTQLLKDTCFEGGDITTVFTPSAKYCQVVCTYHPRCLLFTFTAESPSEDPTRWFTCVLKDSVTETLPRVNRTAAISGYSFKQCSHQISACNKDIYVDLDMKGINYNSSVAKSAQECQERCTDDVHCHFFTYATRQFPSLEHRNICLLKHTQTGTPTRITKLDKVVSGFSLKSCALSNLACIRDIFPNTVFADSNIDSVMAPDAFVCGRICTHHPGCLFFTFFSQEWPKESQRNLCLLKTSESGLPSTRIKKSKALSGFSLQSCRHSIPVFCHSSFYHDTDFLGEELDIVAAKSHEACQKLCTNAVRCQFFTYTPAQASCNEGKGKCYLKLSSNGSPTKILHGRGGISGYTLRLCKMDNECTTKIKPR
Sequence of Coagulation factor XI (P03951 388-625 limits assumed): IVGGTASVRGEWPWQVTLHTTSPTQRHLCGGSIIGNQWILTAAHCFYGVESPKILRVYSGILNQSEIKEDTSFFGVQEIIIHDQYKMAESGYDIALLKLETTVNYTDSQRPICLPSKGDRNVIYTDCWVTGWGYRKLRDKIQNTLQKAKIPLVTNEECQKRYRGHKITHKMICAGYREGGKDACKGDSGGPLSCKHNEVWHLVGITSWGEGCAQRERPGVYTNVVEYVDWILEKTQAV

IC50 (Collagenase 3): 0.011 µM
Structure (SMILES): COc1cccc(CNC(=O)C#Cc2cn(Cc3ccc(C(=O)O)cc3)c(=O)[nH]c2=O)c1

Kd [3]: 1.3 µM
Structure (SMILES): O=S(=O)(NCCc1c[nH]c2ccccc12)c1cc(Br)c(Cl)s1

Ki (Coagulation factor XI): 0.0005 µM
Structure (SMILES): O=C(N[C@@H](Cc1ccccc1)C(=O)NCc1cc2cc(Cl)ccc2[nH]c1=O)c1ccc2[nH]c(=O)cc(O)c2c1

Second part, the compound before the results:

Structure (SMILES): Cc1ccc2cc(C(N)=O)cc(O)c2n1
IC50 [1]: > 500 µM
IC50 [2]: > 500 µM

Structure (SMILES): CC(C)(C)c1nc(-c2ccc[nH]2)c2cc(C(N)=O)c(N)nc2n1
IC50 [1]: 0.1 µM
IC50 [2]: 0.1 µM

Structure (SMILES): Cc1cc(-c2cc(NC(=O)c3ccc(C(=O)O)cc3C)[nH]n2)cc(C(F)(F)F)c1
IC50 [4]: 0.16 µM

Structure (SMILES): Brc1ccc2c(c1)ncn2-c1ccccc1
Activity [5]: 28%

Structure (SMILES): COC(=O)[C@@H](N)Cc1c[nH]c2ccccc12 [TRYPTOPHAN METHYL ESTER]
Kd [3]: 570 µM
